Data as given in US10874745B2, “Antimicrobial peptides and methods of treating gram-negative pathogens: polar and non-polar face analogs” (priority 2017, dated 2020).
Converted amounts (≈) assume the structure as drawn. “And” between values parts separate entries of the source, which are not always exact repeats. Identical values can stand only once.

Tests used:
A. baumannii strain 649 = type: cell-based, Acinetobacter baumannii
Text: A critical component to the systemic use of AMPs to treat bacterial infections is the extent of AMP binding to serum proteins. In addition, since only the unbound AMP is available to interact with the therapeutic target, the extent of serum binding can have significant effects on efficacy. […] This assay estimates the in vivo bioavailability of the AMPs. […] An increase in MIC in serum is attributed to inhibition of antimicrobial activity due to serum protein binding.

human red blood cells = assay: Hemolytic activity; type: cell-based; details: for Hemolytic activity HC30: 18 h; for HC50: 50% hemolysis of human red blood cells after 18 hours at 37° C.
Protocol: (§1) Hemoglobin release was determined spectrophotometrically at 570 nm. […] […] […] With the peptides used in this study the inventors used the HC30/MIC ratio value to calculate the therapeutic index.

[1] = system: clinical isolates of Pseudomonas aeruginosa; type: cell-based; details: geometric mean, 6 clinical isolates of P. aeruginosa
Protocol: (§2) Measurement of Antimicrobial Activity (MIC): The minimal inhibitory concentration (MIC) is defined as the lowest peptide concentration that inhibited bacterial growth. MICs were measured by a standard microtiter dilution method in Mueller Hinton (MH) medium. Briefly, cells were grown overnight at 37° C. in MH broth and were diluted in the same medium. […] The plates were incubated at 37° C. for 24 h, and the MICs were determined.

[2] = system: A. baumannii clinical isolates; assay: MIC, microtiter dilution in Mueller Hinton medium; type: cell-based; details: geometric mean, 7 clinical isolates of A. baumannii
Text: (§3) Gram-Negative Bacterial Strains used in this Study: All the A. baumannii strains used in this study were 1) obtained from the collection of Dr. Anthony A. Campagnari at the University of Buffalo and originally isolated from different patients and organs/tissues (strain 649, blood; strain 689, groin; strain 759, gluteus; strain 884, axilla; strain 985, pleural fluid); 2) were purchased from the American Type Culture Collection (ATCC, Manassas, Va., USA) (strain ATCC 17978, fatal meningitis; and strain ATCC 19606, urine); 3) obtained from MERCK (M89941, M89949, M89951, M89952, M89953, M89955 and M89963). These seven A. baumannii strains were resistant to polymyxin B and polymyxin E (Colistin).
as §2

[3] = system: A. baumannii strains resistant to Polymyxin B and Colistin; type: cell-based; details: geometric mean, 7 A. baumannii strains resistant to polymyxin B and colistin
Text: as §3, §2

Hemolytic activity = type: cell-based, human; details: 1% human erythrocytes (red blood cells), pH 7.4; 50% hemolysis of human red blood cells after 18 hours at 37° C.; read-out: HC50
Protocol: as §1

CC(=O)N[C@H](C)C(=O)N[C@H](CC(C)C)C(=O)N[C@H](CCCCN)C(=O)N[C@H](CO)C(=O)N[C@H](CC(C)C)C(=O)N[C@H](CC(C)C)C(=O)N[C@H](CCCCN)C(=O)N[C@@H](C(=O)N[C@H](CC(C)C)C(=O)N[C@H](CO)C(=O)N[C@H](C)C(=O)N[C@H](C)C(=O)N[C@H](CCCCN)C(=O)N[C@H](CCCCN)C(=O)N[C@H](CCCCN)C(=O)N[C@H](CCCCN)C(=O)N[C@H](CC(C)C)C(=O)N[C@H](C)C(=O)N[C@@H](C(=O)N[C@H](CC(C)C)C(=O)N[C@H](CC(C)C)C(=O)N[C@H](CCCCN)C(=O)N[C@H](C)C(=O)N[C@H](CC(C)C)C(=O)N[C@H](CO)C(=O)N[C@H](CCCCN)C(N)=O)[C@H](C)O)[C@H](C)O [Peptide D34]
MIC, 25% human serum (A. baumannii strain 649): 1.4 µM (≈ 3.93 µg/mL) | MIC, No serum (A. baumannii strain 649): 0.2 µM (≈ 0.562 µg/mL) | Hemolytic activity HC30 (human red blood cells): 126 µM

CC(=O)N[C@H](C)C(=O)N[C@H](CC(C)C)C(=O)N[C@H](CCCCN)C(=O)N[C@H](CO)C(=O)N[C@H](CC(C)C)C(=O)N[C@H](CC(C)C)C(=O)N[C@H](CCCCN)C(=O)N[C@@H](C(=O)N[C@H](CC(C)C)C(=O)N[C@H](CO)C(=O)N[C@H](CCCCN)C(=O)N[C@H](C)C(=O)N[C@H](C)C(=O)N[C@H](C)C(=O)N[C@H](C)C(=O)N[C@H](C)C(=O)N[C@H](CC(C)C)C(=O)N[C@H](CCCCN)C(=O)N[C@@H](C(=O)N[C@H](CC(C)C)C(=O)N[C@H](CC(C)C)C(=O)N[C@H](CCCCN)C(=O)N[C@H](C)C(=O)N[C@H](CC(C)C)C(=O)N[C@H](CO)C(=O)N[C@H](CCCCN)C(N)=O)[C@H](C)O)[C@H](C)O [Peptide D37]
MIC, 25% human serum (A. baumannii strain 649): >92.8 µM | MIC, No serum (A. baumannii strain 649): 2.9 µM (≈ 7.81 µg/mL) | Hemolytic activity HC30 (human red blood cells): 2.6 µM

CC(=O)N[C@H](C)C(=O)N[C@H](CC(C)C)C(=O)N[C@H](CCCCN)C(=O)N[C@H](CO)C(=O)N[C@H](CC(C)C)C(=O)N[C@H](CC(C)C)C(=O)N[C@H](C)C(=O)N[C@@H](C(=O)N[C@H](CC(C)C)C(=O)N[C@H](CO)C(=O)N[C@H](CCCCN)C(=O)N[C@H](C)C(=O)N[C@H](CCCCN)C(=O)N[C@H](CCCCN)C(=O)N[C@H](CCCCN)C(=O)N[C@H](CCCCN)C(=O)N[C@H](CC(C)C)C(=O)N[C@H](CCCCN)C(=O)N[C@@H](C(=O)N[C@H](CC(C)C)C(=O)N[C@H](CC(C)C)C(=O)N[C@H](C)C(=O)N[C@H](C)C(=O)N[C@H](CC(C)C)C(=O)N[C@H](CO)C(=O)N[C@H](CCCCN)C(N)=O)[C@H](C)O)[C@H](C)O [Peptide D35]
MIC, 25% human serum (A. baumannii strain 649): 1.4 µM (≈ 3.93 µg/mL) | MIC, No serum (A. baumannii strain 649): 0.4 µM (≈ 1.12 µg/mL) | Hemolytic activity HC30 (human red blood cells): 30 µM

CC(=O)N[C@H](C)C(=O)N[C@H](CC(C)C)C(=O)N[C@H](CCCCN)C(=O)N[C@H](CO)C(=O)N[C@H](CC(C)C)C(=O)N[C@H](CC(C)C)C(=O)N[C@H](CCCCN)C(=O)N[C@@H](C(=O)N[C@H](CC(C)C)C(=O)N[C@H](CO)C(=O)N[C@H](CCCCN)C(=O)N[C@H](C)C(=O)N[C@H](CCCCN)C(=O)N[C@H](C)C(=O)N[C@H](C)C(=O)N[C@H](CCCCN)C(=O)N[C@H](CC(C)C)C(=O)N[C@H](CCCCN)C(=O)N[C@@H](C(=O)N[C@H](CC(C)C)C(=O)N[C@H](CC(C)C)C(=O)N[C@H](CCCCN)C(=O)N[C@H](C)C(=O)N[C@H](CC(C)C)C(=O)N[C@H](CO)C(=O)N[C@H](CCCCN)C(N)=O)[C@H](C)O)[C@H](C)O [Peptide D33]
MIC, 25% human serum (A. baumannii strain 649): 0.7 µM (≈ 1.97 µg/mL) | MIC, No serum (A. baumannii strain 649): 0.1 µM (≈ 0.281 µg/mL) | Hemolytic activity HC30 (human red blood cells): 89 µM

CC(=O)N[C@H](C)C(=O)N[C@H](CC(C)C)C(=O)N[C@H](CCCCN)C(=O)N[C@H](CCCCN)C(=O)N[C@H](CC(C)C)C(=O)N[C@H](CC(C)C)C(=O)N[C@H](CCCCN)C(=O)N[C@@H](C(=O)N[C@H](CC(C)C)C(=O)N[C@H](CO)C(=O)N[C@H](CCCCN)C(=O)N[C@H](C)C(=O)N[C@H](CN)C(=O)N[C@H](C)C(=O)N[C@H](C)C(=O)N[C@H](CN)C(=O)N[C@H](CC(C)C)C(=O)N[C@H](CCCCN)C(=O)N[C@@H](C(=O)N[C@H](CC(C)C)C(=O)N[C@H](CC(C)C)C(=O)N[C@H](CCCCN)C(=O)N[C@H](C)C(=O)N[C@H](CC(C)C)C(=O)N[C@H](CO)C(=O)N[C@H](CCCCN)C(N)=O)[C@H](C)O)[C@H](C)O [D41(Dpr13/Dpr16)]
MICGM [1]: 1.3 µM | MICGM [2]: 0.6 µM | MICGM [3]: 0.7 µM | HC50 (human red blood cells): 22.6 µM | HC50 at 18 h (Hemolytic activity): 22.6 µM and 62.5 µg/mL

CC(=O)N[C@H](C)C(=O)N[C@H](CC(C)C)C(=O)N[C@H](CCCCN)C(=O)N[C@H](CCCCN)C(=O)N[C@H](CC(C)C)C(=O)N[C@H](CC(C)C)C(=O)N[C@H](CCCCN)C(=O)N[C@@H](C(=O)N[C@H](CC(C)C)C(=O)N[C@H](CO)C(=O)N[C@H](CCCCN)C(=O)N[C@H](C)C(=O)N[C@H](CCCCN)C(=O)N[C@H](C)C(=O)N[C@H](C)C(=O)N[C@H](CCCCN)C(=O)N[C@H](CC(C)C)C(=O)N[C@H](CCCCN)C(=O)N[C@@H](C(=O)N[C@H](CC(C)C)C(=O)N[C@H](CC(C)C)C(=O)N[C@H](CCCCN)C(=O)N[C@H](C)C(=O)N[C@H](CC(C)C)C(=O)N[C@H](CO)C(=O)N[C@H](CCCCN)C(N)=O)[C@H](C)O)[C@H](C)O [D41(Lys13/Lys16)]
MICGM [1]: 0.8 µM | MICGM [2]: 0.4 µM | MICGM [3]: 0.4 µM | HC50 (human red blood cells): 13.7 µM | HC50 at 18 h (Hemolytic activity): 13.7 µM and 39 µg/mL

CC(=O)N[C@H](C)C(=O)N[C@H](CC(C)C)C(=O)N[C@H](C)C(=O)N[C@H](CO)C(=O)N[C@H](CC(C)C)C(=O)N[C@H](CC(C)C)C(=O)N[C@H](CCCCN)C(=O)N[C@@H](C(=O)N[C@H](CC(C)C)C(=O)N[C@H](CO)C(=O)N[C@H](CCCCN)C(=O)N[C@H](C)C(=O)N[C@H](C)C(=O)N[C@H](CCCCN)C(=O)N[C@H](CCCCN)C(=O)N[C@H](C)C(=O)N[C@H](CC(C)C)C(=O)N[C@H](CCCCN)C(=O)N[C@@H](C(=O)N[C@H](CC(C)C)C(=O)N[C@H](CC(C)C)C(=O)N[C@H](CCCCN)C(=O)N[C@H](C)C(=O)N[C@H](CC(C)C)C(=O)N[C@H](CO)C(=O)N[C@H](C)C(N)=O)[C@H](C)O)[C@H](C)O [Peptide D40]
MIC, 25% human serum (A. baumannii strain 649): >92.8 µM | MIC, No serum (A. baumannii strain 649): 2.9 µM (≈ 7.81 µg/mL) | Hemolytic activity HC30 (human red blood cells): 2.8 µM

CC(=O)N[C@H](C)C(=O)N[C@H](CC(C)C)C(=O)N[C@H](CCCCN)C(=O)N[C@H](CO)C(=O)N[C@H](CC(C)C)C(=O)N[C@H](CC(C)C)C(=O)N[C@H](C)C(=O)N[C@@H](C(=O)N[C@H](CC(C)C)C(=O)N[C@H](CO)C(=O)N[C@H](CCCCN)C(=O)N[C@H](C)C(=O)N[C@H](C)C(=O)N[C@H](CCCCN)C(=O)N[C@H](CCCCN)C(=O)N[C@H](C)C(=O)N[C@H](CC(C)C)C(=O)N[C@H](CCCCN)C(=O)N[C@@H](C(=O)N[C@H](CC(C)C)C(=O)N[C@H](CC(C)C)C(=O)N[C@H](C)C(=O)N[C@H](C)C(=O)N[C@H](CC(C)C)C(=O)N[C@H](CO)C(=O)N[C@H](CCCCN)C(N)=O)[C@H](C)O)[C@H](C)O [Peptide D39]
MIC, 25% human serum (A. baumannii strain 649): >92.8 µM | MIC, No serum (A. baumannii strain 649): 1.4 µM (≈ 3.77 µg/mL) | Hemolytic activity HC30 (human red blood cells): 2.8 µM

CC(=O)N[C@H](C)C(=O)N[C@H](CC(C)C)C(=O)N[C@H](C)C(=O)N[C@H](CO)C(=O)N[C@H](CC(C)C)C(=O)N[C@H](CC(C)C)C(=O)N[C@H](CCCCN)C(=O)N[C@@H](C(=O)N[C@H](CC(C)C)C(=O)N[C@H](CO)C(=O)N[C@H](CCCCN)C(=O)N[C@H](C)C(=O)N[C@H](CCCCN)C(=O)N[C@H](CCCCN)C(=O)N[C@H](CCCCN)C(=O)N[C@H](CCCCN)C(=O)N[C@H](CC(C)C)C(=O)N[C@H](CCCCN)C(=O)N[C@@H](C(=O)N[C@H](CC(C)C)C(=O)N[C@H](CC(C)C)C(=O)N[C@H](CCCCN)C(=O)N[C@H](C)C(=O)N[C@H](CC(C)C)C(=O)N[C@H](CO)C(=O)N[C@H](C)C(N)=O)[C@H](C)O)[C@H](C)O [Peptide D36]
MIC, 25% human serum (A. baumannii strain 649): 0.7 µM (≈ 1.97 µg/mL) | MIC, No serum (A. baumannii strain 649): 0.4 µM (≈ 1.12 µg/mL) | Hemolytic activity HC30 (human red blood cells): 61 µM

CC(=O)N[C@H](C)C(=O)N[C@H](CC(C)C)C(=O)N[C@H](CCCCN)C(=O)N[C@H](CO)C(=O)N[C@H](CC(C)C)C(=O)N[C@H](CC(C)C)C(=O)N[C@H](CCCCN)C(=O)N[C@@H](C(=O)N[C@H](CC(C)C)C(=O)N[C@H](CO)C(=O)N[C@H](C)C(=O)N[C@H](C)C(=O)N[C@H](C)C(=O)N[C@H](CCCCN)C(=O)N[C@H](CCCCN)C(=O)N[C@H](C)C(=O)N[C@H](CC(C)C)C(=O)N[C@H](C)C(=O)N[C@@H](C(=O)N[C@H](CC(C)C)C(=O)N[C@H](CC(C)C)C(=O)N[C@H](CCCCN)C(=O)N[C@H](C)C(=O)N[C@H](CC(C)C)C(=O)N[C@H](CO)C(=O)N[C@H](CCCCN)C(N)=O)[C@H](C)O)[C@H](C)O [Peptide D38]
MIC, 25% human serum (A. baumannii strain 649): >92.8 µM | MIC, No serum (A. baumannii strain 649): 0.7 µM (≈ 1.89 µg/mL) | Hemolytic activity HC30 (human red blood cells): 2.8 µM
